US7947830B2, “Substituted propenyl piperazine derivatives as novel inhibitors of histone deacetylase” (Janssen Pharmaceutica N.V., priority 2004, dated 2011)
Values after ≈ are worked out from the molar mass of the structure shown.

Experiments:
[1] = biological target: histone deacetylase (HeLa nuclear extracts); assay: In vitro assay for inhibition of histone deacetylase (HDAC Fluorescent Activity Assay, Fluor de Lys); type: biochemical; details: Fluor de Lys substrate
Source text: The in vitro assay for inhibition of histone deacetylase (see example C.1) measures the inhibition of HDAC enzymatic activity obtained with the compounds of formula (I).
The HDAC Fluorescent Activity Assay/Drug Discovery Kit of Biomol (cat.No: AK-500-0001) was used. The HDAC Fluorescent Activity Assay is based on the Fluor de Lys (Fluorogenic […] deAcetylase Lysyl) substrate and developer combination. The Fluor de Lys substrate, comprises an acetylated lysine side chain. Deacetylation of the substrate sensitizes the substrate so that, in the second step, treatment with the Fluor de Lys developer produces a fluorophore.
After 30 min, 1 volume of the developer was added. […] For each experiment, controls (containing HeLa nuclear extract and buffer), a blank incubation (containing buffer but no HeLa nuclear extract) and samples (containing compound dissolved in DMSO and further diluted in buffer and HeLa nuclear extract) were run in parallel. […] All sample were tested 4 times. In each test the blank value was substracted from both the control and the sample values. The control sample represented 100% of substrate deactylation. For each sample the fluorescence was expressed as a percentage of the mean value of the controls. […] Herein the effects of test compounds are expressed as pIC50 (the negative log value of the IC50-value) (see Table F-3).

[2] = Solubility at different pH's, chemiluminescent nitrogen detector (C.3.b); type: physicochemical; details: for solubility: pH 2.3, aqueous buffer, read-out: Solubility C.3.b. pH = 2.3 mg/ml
Source text: In a second method the solubility of a compound at different pH's can be measured with the use of a chemiluminescent nitrogen detector (see example C.3.b).
The solubility of a compound, at different pH's, can also be measured with the use of a cherniluminescent nitrogen detector (see Table F-3).

[3] = test system: A2780 ovarian carcinoma cells; assay: Antiproliferative activity on A2780 cells (MTT); type: cell-based, human; details: four days of incubation; for IC50: Homo sapiens, A2780, 96 h, read-out: Cellular activity pIC50 C.2. (converted)
Experimental: Cellular activity of the compounds of formula (I) was determined on A2780 tumour cells using a […] assay for cell toxicity or survival (Mosmann Tim, Journal of Immunological Methods 65: 55-63, 1983)(see example C.2).
All compounds tested were dissolved in DMSO and further dilutions were made in culture medium. Final DMSO concentrations never exceeded 0.1% (v/v) in cell proliferation assays. Controls contained A2780 cells and DMSO without compound and blanks contained DMSO but no cells. MTT was dissolved at 5 mg/ml in PBS. A glycine buffer comprised of 0.1 M glycine and 0.1 M NaCl buffered to pH 10.5 with NaOH (1 N) was prepared (all reagents were from Merck).
The human A2780 ovarian carcinoma cells (a kind gift from Dr. T. C. Hamilton [Fox Chase Cancer Centre, Pennsylvania, USA]) were cultured in RPMI 1640 medium supplemented with 2 mM L-glutamine, 50 μg/ml gentamicin and 10% fetal calf serum.
Cells were routinely kept as monolayer cultures at 37° C. in a humidified 5% CO2 atmosphere. Cells were passaged once a week using a trypsin/EDTA solution at a split ratio of 1:40. All media and supplements were obtained from Life Technologies. Cells were free of mycoplasma contamination as determined using the Gen-Probe Mycoplasma Tissue Culture kit (supplier: BioMérieux).
Cells were seeded in NUNC™ 96-well culture plates (Supplier: Life Technologies) and allowed to adhere to the plastic overnight. Densities used for plating were 1500 cells per well in a total volume of 200 μl medium. After cell adhesion to the plates, medium was changed and drugs and/or solvents were added to a final volume of 200 μl. Following four days of incubation, medium was replaced by 200 μl fresh medium and cell density and viability was assessed using an MTT-based assay. To each well, 25 μl […] solution was added and the cells were further incubated for 2 hours at 37° C. The medium was then carefully aspirated and the blue MTT-formazan product was solubilized by addition of 25 μl glycine buffer followed by 100 μl of DMSO. […] Within an experiment, the results for each experimental condition are the mean of 3 replicate wells. For initial screening purposes, compounds were tested at a single fixed concentration of 10^−6 M. For active compounds, the experiments were repeated to establish full concentration-response curves. For each experiment, controls (containing no drug) and a blank incubation (containing no cells or drugs) were run in parallel. The blank value was subtracted from all control and sample values. For each sample, the mean value for cell growth (in absorbance units) was expressed as a percentage of the mean value for cell growth of the control. […] Herein the effects of test compounds are expressed as pIC50 (the negative log value of the IC50-value)(see Table F-3).

[4] = Kinetic solubility in aqueous media (nephelometer, C.3.a); type: physicochemical; details: aqueous buffer, kinetic from dmso stock; score; phosphate citrate buffer pH 7.4, turbidity
Experimental: The solubility of a compound measures the ability of a compound to stay in solution. In a first method the ability of a compound to stay in aqueous solution upon dilution (see example C.3.a) is measured. DMSO-stock solutions are diluted with a single aqueous buffer solvent in 3 consecutive steps. For every dilution turbidity is measured with a nephelometer.
In the first dilution step, 10 μl of a concentrated stock-solution of the active compound, solubilized in DMSO (5 mM), was added to 100 μl phosphate citrate buffer pH 7.4 and mixed. In the second dilution step, an aliquot (20 μl) of the first dilution step was further dispensed in 100 μl phosphate citrate buffer pH 7.4 and mixed. Finally, in the third dilution step, a sample (20 μl) of the second dilution step was further diluted in 100 μl phosphate citrate buffer pH 7.4 and mixed. All dilutions were performed in 96-well plates. Immediately after the last dilution step the turbidity of the three consecutive dilution steps were measured with a nephelometer. Dilution was done in triplicate for each compound to exclude occasional errors. Based on the turbidity measurements a ranking is performed into 3 classes. Compounds with high solubility obtained a score of 3 and for this compounds the first dilution is clear. Compounds with medium solubility obtained a score of 2. For these compounds the first dilution is unclear and the second dilution is clear.

Compound | melting point [°C] | Enzymatic activity pIC50 C.1. [1] | solubility [2] [µg/mL] | Cellular activity pIC50 C.2. [3] | Solubility C.3.b. pH = 2.3 mg/ml [2] [mg/ml] | solubility [4] [µM] | IC50 [3] [nM]
O=C(NO)c1cnc(N2CCN(C(/C=C/c3ccc(Cl)cc3)CN3CCOCC3)CC2)nc1 (stereo not drawn) (hydrate or solvate) [Compound 2] | 135 |  |  |  |  |  | 
CN(C)C(=O)C(C)(/C=C/c1ccc(F)cc1)N1CCN(c2ncc(C(=O)NO)cn2)CC1 (stereo not drawn) (hydrate or solvate) [Compound 10] | 146 |  |  |  |  |  | 
O=C(NO)c1cnc(N2CCN([C@@H](/C=C/c3ccccc3)CO)CC2)nc1 (single isomer, unassigned) [Compound 25] |  | 7.9 | 3400 (≈ 9.2 mM) | 7.6 |  |  | 
O=C(NO)c1cnc(N2CCN([C@@H](/C=C/c3ccccc3)CO)CC2)nc1 (single isomer, unassigned) [Compound 26] |  | 8.3 |  | 7.2 | 3.5 |  | 
O=C(NO)c1cnc(N2CCN([C@@H](/C=C/c3ccc(F)cc3)CO)CC2)nc1 (single isomer, unassigned) [Compound 27] |  |  |  | 7.5 |  |  | 
O=C(NO)c1cnc(N2CCN([C@H](/C=C/c3ccc(F)cc3)CO)CC2)nc1 (single isomer, unassigned) [Compound 28] |  |  |  | 7.5 |  |  | 
O=C(NO)c1cnc(N2CCN([C@@H](/C=C/c3ccc(F)cc3)CO)CC2)nc1 (single isomer, unassigned) [Compound 33] |  |  |  | 8.2 |  |  | 
O=C(NO)c1cnc(N2CCN([C@H](/C=C/c3ccc(F)cc3)CO)CC2)nc1 (single isomer, unassigned) [Compound 34] |  |  |  | 7.9 |  |  | 
O=C(NO)c1cnc(N2CCN(C(/C=C/c3ccc(Cl)cc3)CN3CCOCC3)CC2)nc1 (stereo not drawn) [Compound 2] |  | 7.4 |  |  |  | > 455 | 316
COc1ccc(/C=C/C(CO)N2CCN(c3ncc(C(=O)NO)cn3)CC2)cc1 (stereo not drawn) [Compound 3] |  | 8.1 |  |  |  | > 455 | 31.6
O=C(NO)c1cnc(N2CCN(C(/C=C/c3ccc(-c4ccccc4)cc3)CO)CC2)nc1 (stereo not drawn) [Compound 5] |  | 7.9 |  |  |  | < 76 | 39.8
O=C(NO)c1cnc(N2CCN(C(/C=C/c3ccc(C(F)(F)F)cc3)CO)CC2)nc1 (stereo not drawn) [Compound 6] |  | 7.6 |  |  |  | > 455 | 39.8
CC(/C=C/c1ccccc1)N1CCN(c2ncc(C(=O)NO)cn2)CC1 (stereo not drawn) [Compound 7] | 161 | >9 | 2000 (≈ 5.66 mM) |  |  |  | 31.6
O=C(NO)c1cnc(N2CCN(C(/C=C/c3ccc(F)cc3)CO)CC2)nc1 (stereo not drawn) [Compound 8] |  |  | 2900 (≈ 7.49 mM) |  |  |  | 12.6
CC(=O)OCC(/C=C/c1ccccc1)N1CCN(c2ncc(C(=O)NO)cn2)CC1 (stereo not drawn) [Compound 9] | 161 | 9.4 |  |  |  |  | 25.1
CN(C)C(=O)C(C)(/C=C/c1ccc(F)cc1)N1CCN(c2ncc(C(=O)NO)cn2)CC1 (stereo not drawn) [Compound 10] |  | 8.4 | 3000 (≈ 6.78 mM) |  |  |  | 31.6
COCC(/C=C/c1ccccc1)N1CCN(c2ncc(C(=O)NO)cn2)CC1 (stereo not drawn) [Compound 11] | 212 | 9.4 | 3100 (≈ 8.08 mM) |  |  |  | 10

Compound | melting point [°C] | Enzymatic activity pIC50 C.1. [1] | solubility [2] [µg/mL] | Cellular activity pIC50 C.2. [3] | Solubility C.3.b. pH = 2.3 mg/ml [2] [mg/ml] | solubility [4] [µM] | IC50 [3] [nM]
Cc1ccc(/C=C/C(CO)N2CCN(c3ncc(C(=O)NO)cn3)CC2)cc1 (stereo not drawn) [Compound 12] |  | 9.0 | 2100 (≈ 5.48 mM) |  |  |  | 31.6
CC(/C=C/c1ccccc1)(C(=O)N1CCOCC1)N1CCN(c2ncc(C(=O)NO)cn2)CC1 (stereo not drawn) [Compound 13] |  | 8.8 | 3700 (≈ 7.93 mM) |  |  |  | 100
CCN(C)C(=O)C(C)(/C=C/c1ccc(F)cc1)N1CCN(c2ncc(C(=O)NO)cn2)CC1 (stereo not drawn) [Compound 14] |  | 8.5 | 2800 (≈ 6.13 mM) |  |  |  | 39.8
O=C(NO)c1cnc(N2CCN(C(/C=C/c3ccccc3)C(=O)NC3CC3)CC2)nc1 (stereo not drawn) [Compound 15] |  | 7.6 |  |  |  | > 455 | 100
CNC(=O)C(/C=C/c1ccccc1)N1CCN(c2ncc(C(=O)NO)cn2)CC1 (stereo not drawn) [Compound 16] |  | 7.4 | 2800 (≈ 7.06 mM) |  |  |  | 79.4
O=C(NO)c1cnc(N2CCN(C(/C=C/c3ccccc3)C(=O)N3CCOCC3)CC2)nc1 (stereo not drawn) [Compound 17] |  | 8.8 | 2200 (≈ 4.86 mM) |  |  |  | 200
CN(C)CCNC(=O)C(/C=C/c1ccccc1)N1CCN(c2ncc(C(=O)NO)cn2)CC1 (stereo not drawn) [Compound 18] |  | 8.5 | 3600 (≈ 7.94 mM) |  |  |  | 100
O=C(NO)c1cnc(N2CCN(C(/C=C/c3ccccc3)C(=O)NCCO)CC2)nc1 (stereo not drawn) [Compound 19] |  | 8.4 | 2600 (≈ 6.1 mM) |  |  |  | 501
CCCCN(C)C(=O)C(C)(/C=C/c1ccc(F)cc1)N1CCN(c2ncc(C(=O)NO)cn2)CC1 (stereo not drawn) [Compound 20] |  | 7.7 |  |  |  |  | 50.1
O=C(NO)c1cnc(N2CCN(C(/C=C/c3ccccc3)CN3CCOCC3)CC2)nc1 (stereo not drawn) [Compound 21] |  | 7.9 | 2100 (≈ 4.79 mM) |  |  |  | 158
CN1CCN(CC(/C=C/c2ccccc2)N2CCN(c3ncc(C(=O)NO)cn3)CC2)CC1 (stereo not drawn) [Compound 22] |  | 7.9 | 4200 (≈ 9.3 mM) |  |  |  | 158
O=C(NO)c1cnc(N2CCN(C(/C=C/c3ccccc3)Cn3ccnc3)CC2)nc1 (stereo not drawn) [Compound 23] |  | 8.0 |  |  |  |  | 251
CCOCC(/C=C/c1ccccc1)N1CCN(c2ncc(C(=O)NO)cn2)CC1 (stereo not drawn) [Compound 24] |  | 8.8 | 4000 (≈ 10.1 mM) |  |  |  | 31.6
O=C(NO)c1ccc(N2CCN(C(/C=C/c3ccc(F)cc3)CO)CC2)nc1 (stereo not drawn) [Compound 31] | 145 | 8.5 |  |  |  |  | 39.8
COCC(/C=C/c1ccc(F)cc1)N1CCN(c2ncc(C(=O)NO)cn2)CC1 (stereo not drawn) [Compound 32] |  | >9 |  |  |  |  | < 31.6
CC(/C=C/c1ccccc1)N1CCN(c2ncc(C(=O)NO)cn2)CC1 (stereo not drawn) [Compound 35] |  | 9.6 |  | 7.8 |  |  | 
